Measured values reported in PMC5825103 (PLoS ONE, 2018).

Assays:
[1] = target: T1, MR-LBD binding to co-activator peptides (Homo sapiens, UniProt P08235, C808S); assay: co-factor peptide recruitment by surface plasmon resonance; conditions: 50 μM compound, relative to dexamethasone, seven peptides
T1 construct: MR-LBD (amino acids 712–984) with the mutations C808S; 6-HN tag (thrombin cleavable) (N); made in house
T1 sequence (P08235 712-984 C808S): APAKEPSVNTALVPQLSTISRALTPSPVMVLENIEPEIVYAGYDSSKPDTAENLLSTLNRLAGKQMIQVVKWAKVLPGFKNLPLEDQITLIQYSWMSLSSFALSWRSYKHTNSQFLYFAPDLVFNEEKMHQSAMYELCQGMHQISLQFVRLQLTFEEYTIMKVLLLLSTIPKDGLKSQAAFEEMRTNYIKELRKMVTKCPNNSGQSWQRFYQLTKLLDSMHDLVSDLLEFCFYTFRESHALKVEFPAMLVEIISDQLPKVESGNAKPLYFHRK
Procedure: Co-activator recruitment of MR was determined using surface plasmon resonance (SPR) biosensor (Biacore 3000, GE Healthcare) by probing the level of receptor binding to seven surface-immobilized co-activator peptides. All peptides carried an N-terminal biotin for surface-immobilisation, the following peptides and sequences were used:
Prior to the SPR measurements, excess dexamethasone was removed by gel filtration via a passage through a PD10 column (GE Healthcare) equilibrated in SPR running buffer (10 mM HEPES, 50 mM NaCl, 0,005% P20, pH 7.6). […] The surface was prepared through immobilization of the biotinylated peptides on a streptavidin chip (GE Healthcare) to levels of 1000±300 RU. The binding level at equilibrium was monitored for all samples including the reference sample that contained remaining traces of dexamethasone. All data was normalized to this reference sample in order to quantify the effects on peptide binding without bias by receptor instability. The surface was regenerated with 0.5% (w/v) SDS after each injection.

[2] = test system: uni-nephrectomised db/db mice; assay: organ protection in db/db uni-nephrectomised mice; format: in vivo
Procedure: Obese diabetic male db/db mice (BKS.Cg-Dock7^m +/+ Lepr^db/J homozygotes) and their littermate male db/m mice were obtained from the Jackson Laboratory (Bar Harbor, ME, USA). […] Mice were subjected to right uninephrectomy at 8 weeks of age to hasten the development of diabetic nephropathy as described previously [43]. Db/m mice that received a uninephrectomy at 8 weeks of age served as the operation control. […] All surgery was performed under isoflurane anesthesia, and all efforts were made to minimize suffering.
The blood glucose level and glycosylated hemoglobin (HbA1C) levels were monitored in tail blood samples using a blood glucose meter (Glucometer Elite XL, Bayer Healthcare, Elkhart, IN, USA) and the DC 2000+ HbA1C kit (Bayer Healthcare), respectively, before treatment and at the time of sacrifice. Twenty-four-hour urine was obtained from each mouse after placement in metabolic cages before treatment and at the time of sacrifice. Urine albumin was measured using the DC2000+ microalbumin reagent kit (Bayer Healthcare).
Mice were sacrificed under isoflurane anesthesia. Blood samples were obtained by cardiac puncture for the measurements of plasma compound, K^+ and creatinine concentrations. Plasma K^+ levels were determined on a Radiometer ABL 700 blood gas analyser (Radiometer, Copnchagen DK). Plasma creatinine levels were determined by LC-MS/MS. Urine creatinine was measured by the Jaffe method (Creatinine FS, REF117119910021, DiaSys). Kidneys were perfused through the heart with cold PBS and then excised. One piece of renal cortex was fixed in 10% neutralized formalin for histological staining.
Formalin-fixed renal cortex tissues were subsequently embedded in paraffin. Three-micrometer sections were cut from the tissue blocks and stained with periodic acid-Schiff (PAS). The PAS-positive glomerular matrix was quantitated in a blinded fashion by a computer-assisted method as previously described [43]. At least 20 glomeruli from each individual mouse were assessed. The PAS-positive material area in the mesangium was normalized by that of the total glomerular tuft where the percentage of mesangial matrix occupying each glomerulus area was rated. Glomerular sclerosis index was graded from 0 to 4+ as follows: 0 represents no lesion, 1+ represents sclerosis of <25% of the glomerulus, while 2 =, 3+ and 4+ represent sclerosis of 25% to 50%, >50% to 75%, and >75% of the glomerulus, respectively. A whole kidney average sclerosis index was obtained by averaging scores from all glomeruli on one section.

| co-activator peptide binding [1] | SMILES | FE K+ end ([2]; after 4 weeks treatment) [%] | FE Na+ end ([2]; after 4 weeks treatment) [%] | UAE w22 ([2]; after 4 weeks treatment) [µg 24h-1] | p-K+ end ([2]; after 4 weeks treatment) [mM] | u-K+ end ([2]; after 4 weeks treatment) [mmol/24h] | u-Na+ end ([2]; after 4 weeks treatment) [mmol/24h] | u-Na+/K+ end ([2]; after 4 weeks treatment) | UAE w18 ([2]; before treatment, 18 weeks of age) [µg 24h-1] | increased injury (glomerular ECM scoring) from week 18 to 22 ([2]; four week treatment) |
| --- | --- | --- | --- | --- | --- | --- | --- | --- | --- | --- |
| strongest peptide binding | C[C@]12CCC(=O)C=C1CC[C@@H]1[C@@H]2[C@@H](O)C[C@]2(C=O)[C@@H](C(=O)CO)CC[C@@H]12 [aldosterone] |  |  |  |  |  |  |  |  |  |
|  | CCOC(=O)[C@H](CCc1ccccc1)N[C@@H](C)C(=O)N1CCC[C@H]1C(=O)O [enalapril] | 15.6 ± 0.4 | 0.18 ± 0.01 | 583 ± 97 | 4.4 ± 0.1 | 0.90 ± 0.07 | 0.36 ± 0.03 | 0.40 ± 0.01 | 958 ± 184 | prevented |
